What was measured:
[1] = test system: human breast adenocarcinoma (MCF-7); experiment: MTT cytotoxicity assay, MCF-7; type: cell-based; conditions: MCF7, 48 h, mean ± SD
Procedure: (§1) The cells of human liver carcinoma (HepG2), human breast adenocarcinoma (MCF-7), human colorectal carcinoma (HCT-116), and human lung carcinoma (A549) were purchased from the American Type Culture Collection (Rockville, MD). All cells were maintained in a Dulbecco’s modified Eagle’s medium (DMEM), which was supplemented with 10% of heat-inactivated fetal bovine serum (FBS) and 100 U/mL penicillin and streptomycin each. The cells were grown at 37 °C in a humidified atmosphere of 5% CO2.
(§2) The cytotoxicity activities on the human liver carcinoma (HepG2), human breast adenocarcinoma (MCF-7), human colorectal carcinoma (HCT-116), and human lung carcinoma (A549) cell lines were estimated employing the 3-(4,5-dimethyl-2-thiazolyl)-2,5-diphenyl-2H-tetrazolium bromide (MTT) assay, which was grounded on the reduction of the tetrazolium salt by mitochondrial dehydrogenases in viable cells.[51],[52] The cells were dispensed in a 96-well sterile microplate (3 × 10^4 cells/well), followed by their incubation at 37 °C with a series of different concentrations of 10 μL of each compound or doxorubicin (positive control, in DMSO) for 48 h in a serum-free medium prior to the MTT assay. Subsequently, the media were carefully removed, and 40 μL of MTT (2.5 mg/mL) was added to each well and then incubated for an additional 4 h. Purple formazan dye crystals were solubilized by the addition of 200 μL of DMSO. The absorbance was measured at 570 nm using a SpectraMax Paradigm Multi-Mode microplate reader. The relative cell viability was expressed as the mean percentage of viable cells relative to the untreated control cells. All experiments were conducted in triplicate and were repeated on three different days. All of the values were represented as mean ± standard deviation (SD). The IC50s were determined by the SPSS probit analysis software program (SPSS Inc., Chicago, IL).

caspase-3 = experiment: Caspase-3 (active) ELISA in treated HepG2 cells; type: cell-based, human; conditions: for caspase-3 activation, fold higher than the negative control: HepG2, 7a and 7b at 7.9 and 6.1 μM respectively, 24 h; for caspase-3: HepG2 cells treated 24 h, cont. HepG2 67.3 ± 2.8
Procedure: It has been reported that caspases cascade through either intrinsic or extrinsic pathways that mediate the induction of apoptosis, which may lead to apoptotic cell death.[53]−[55] Caspase-3 is involved in cell shrinkage, chromatin condensation, and DNA fragmentation inside the cells, causing apoptosis induction.
Activities of caspase-3 were measured using the Invitrogen caspase-3 (Active) (human) ELISA kit, Catalog # KHO1091 (96 tests) (Invitrogen Corporation) according to the manufacturer’s instructions.

[2] = test system: human lung carcinoma (A549); experiment: MTT cytotoxicity assay, A549; type: cell-based; conditions: 48 h, mean ± SD
Procedure: as §1, §2

HepG2 cancer cells [3] = experiment: Cell cycle analysis by flow cytometry (PI staining); type: cell-based, human; conditions: for accumulation of cells at the Pre G1 phase, fold compared to the control / increase in S phase, fold compared to the reference control / reduction in the percentage of cells at the G2/M phase, fold: HepG2, 7a and 7b at 7.9 and 6.1 μM respectively, 24 h; for %preG / %DIP G2/M / %DIP G1 / %DIP S: HepG2, Figure 3; for %preG: negative control 1.49%; for %DIP G2/M: negative control 9.7%; for %DIP G1: negative control 43.72%; for %DIP S: negative control 46.58%
Procedure: To elucidate whether the cytotoxic activity is due to suppression of cell cycle progression, HepG2 cells were exposed to compounds 7a and 7b at concentrations of 7.9 and 6.1 μM, respectively, for 24 h and analyzed using flow cytometry. […] These compounds also provided a slight increase in S phases by 0.1- and 0.14-fold, respectively, compared to the reference control, as shown in Figure 3.
(§3) Cell cycle analysis and apoptosis detection were carried out using flow cytometry.[62] Both HepG2 and MCF-7 cells were seeded at 8 × 10^4 and incubated at 37 °C and 5% CO2 overnight. After treatment with the tested compounds for 24 h, cell pellets were collected and centrifuged (300g, 5 min). For cell cycle analysis, the cell pellets were fixed with 70% ethanol on ice for 15 min and collected again. The collected pellets were incubated with propidium iodide (PI) staining solution (50 μg/mL PI, 0.1 mg/mL RNaseA, 0.05% Triton X-100) at room temperature for 1 h and analyzed using a Gallios flow cytometer (Beckman Coulter, Brea, CA). Apoptosis detection was performed using a FITC annexin V/PI commercial kit (Becton Dickenson, Franklin Lakes, NJ) following the manufacturer’s protocol. The samples were analyzed using fluorescence-activated cell sorting (FACS) with a Gallios flow cytometer (Beckman Coulter, Brea, CA) within 1 h after staining. Data were analyzed using Kaluza v1.2 (Beckman Coulter).

Bcl-2 = Bcl-2 ELISA in treated HepG2 cells; type: cell-based, human; conditions: for Bcl-2 level relative to control, fold: HepG2, versus control; for Bcl-2: HepG2 cells treated, cont. HepG2 6.222 ± 0.14
Procedure: Furthermore, it is well known that the antiapoptotic Bcl-2 protein plays a critical role in cancer resistance therapy.[56] Therefore, we have studied the effect of both compounds 7a and 7b on Bcl-2 protein expression levels. They provided a 0.5- and 0.4-fold decrease in the Bcl-2 concentration, respectively.
Activities of Bcl-2 were measured using the Invitrogen Zymed Bcl-2 ELISA Kit, Catalog # 99–0042 (96 tests) (Invitrogen Corporation) according to the manufacturer’s instructions.

[4] = test system: human colorectal carcinoma (HCT-116); experiment: MTT cytotoxicity assay, HCT-116; type: cell-based; conditions: 48 h, mean ± SD
Procedure: as §1, §2

HepG2 cancer cells [5] = experiment: Annexin V/PI apoptosis detection by flow cytometry; type: cell-based, human; conditions: negative control DMSO 1.49%
Procedure: The induction of apoptosis has been investigated using the annexin V/propidium iodide (PI) staining assay for both compounds 7a and 7b on HepG2.
as §3

[6] = test system: human liver carcinoma (HepG2); experiment: MTT cytotoxicity assay, HepG2; type: cell-based; conditions: 48 h, mean ± SD
Procedure: as §1, §2

Bax = Bax ELISA in treated HepG2 cells; type: cell-based, human; conditions: cont. HepG2 5.762 ± 1.18
Procedure: In addition, the pro-apoptotic protein (Bax) is a protein that accelerates apoptosis by binding to and antagonizing the death repressor activity of Bcl-2.[57] Following any apoptotic stimuli, Bax causes activation of caspase-3 and perpetuates the apoptotic cascade.[58] The Bax protein expression level is altered in various human malignancies.[59],[60] Therefore, the effect of both compounds 7a and 7b on the Bax expression level has been studied.
Activities of Bax were measured using the Human Bax ELISA kit (DRG Human Bax ELISA (EIA-4487) DRG International, Inc.) according to the manufacturer’s instructions.

CDK-2 enzyme = CDK-2 enzyme (Homo sapiens, UniProt P24941); experiment: In vitro CDK-2 enzyme inhibitory assessment (ELISA); type: biochemical
Procedure: Estimation of CDK-2 was performed using ELISA through an affinity tag labeled capture antibody and a reporter conjugated detector antibody, which immunocapture the sample analyte in solution. The addition of the standard and samples to the wells is carried out, followed by the addition of the antibody mix. After the incubation period is completed, the wells are washed, and the unrestrained substance is discarded. Then, TMB (3,3′,5,5′-tetramethylbenzidine) substrate is added, and prompted by horseradish peroxidase (HRP), blue coloration appeared. The reaction was stopped by the addition of a stop solution, completely changing the color from blue to yellow. Signals were created equivalently to the quantity of the bound analyte, and the intensity was recorded at a certain wavelength (450 nm) using a Robonik P2000 ELISA reader. The concentrations of the tested compounds were calculated from the plotted curve.

| Structure (SMILES) | IC50 [1] | caspase-3 activation, fold higher than the negative control (caspase-3) | caspase-3 (caspase-3) | IC50 [2] | accumulation of cells at the Pre G1 phase, fold compared to the control (HepG2 cancer cells [3]) | increase in S phase, fold compared to the reference control (HepG2 cancer cells [3]) | reduction in the percentage of cells at the G2/M phase, fold (HepG2 cancer cells [3]) | %preG (HepG2 cancer cells [3]) | %DIP G2/M (HepG2 cancer cells [3]) | %DIP G1 (HepG2 cancer cells [3]) | %DIP S (HepG2 cancer cells [3]) | Bcl-2 level relative to control, fold (Bcl-2) | Bcl-2 (Bcl-2) | IC50 [4] | total necrosis and apoptosis (early and late) percentage (HepG2 cancer cells [5]) | IC50 [6] | Bax (Bax) | IC50 (CDK-2 enzyme) |
| --- | --- | --- | --- | --- | --- | --- | --- | --- | --- | --- | --- | --- | --- | --- | --- | --- | --- | --- |
| O=C(Nc1ccccc1)c1c(Nc2ccccc2)n[nH]c1N=Cc1c[nH]c2ccccc12 [7a, 5-((1H-Indol-3-yl)methyleneamino)-N-phenyl-3-(phenylamino)-1H-pyrazole-4-carboxamide] | 10.6 ± 2.3 µM | 7 fold | 388.7 ± 7 pg/mL | 23.7 ± 3.1 µM | 14.9 fold | 0.1 fold | 2.4 fold | 22.18% | 4.11% | 44.61% | 51.28% | 0.5 fold | 3.123 ± 0.1 ng/mL | 17.4 ± 3.2 µM | 22.18% | 6.1 ± 1.9 µM | 211.3 ± 5.9 pg/mL | 0.074 ± 0.15 µM |
| Cc1ccc(NC(=O)c2c(Nc3ccccc3)n[nH]c2N=Cc2c[nH]c3ccccc23)cc1 [7b, 5-((1H-Indol-3-yl)methyleneamino)-3-(phenylamino)-N-(4-methylphenyl)-1H-pyrazole-4-carboxamide] | 14.5 ± 2.5 µM | 5.8 fold | 469.8 ± 10 pg/mL | 14.1 ± 2.1 µM | 18.5 fold | 0.14 fold | 29.4 fold | 27.51% | 0.33% | 46.39% | 53.28% | 0.4 fold | 2.479 ± 0.07 ng/mL | 19.6 ± 3.5 µM | 27.51% | 7.9 ± 1.9 µM | 272.6 ± 11.5 pg/mL | 0.095 ± 0.1 µM |

Reference: PMC8154124, “Design, Synthesis, Anticancer Evaluation, Enzymatic Assays, and a Molecular Modeling Study of Novel Pyrazole–Indole Hybrids” (ACS Omega, 2021)
